The target of assay [1] is T1, JAK3 enzyme (Homo sapiens, UniProt P52333).
T1 sequence (P52333 1-1124): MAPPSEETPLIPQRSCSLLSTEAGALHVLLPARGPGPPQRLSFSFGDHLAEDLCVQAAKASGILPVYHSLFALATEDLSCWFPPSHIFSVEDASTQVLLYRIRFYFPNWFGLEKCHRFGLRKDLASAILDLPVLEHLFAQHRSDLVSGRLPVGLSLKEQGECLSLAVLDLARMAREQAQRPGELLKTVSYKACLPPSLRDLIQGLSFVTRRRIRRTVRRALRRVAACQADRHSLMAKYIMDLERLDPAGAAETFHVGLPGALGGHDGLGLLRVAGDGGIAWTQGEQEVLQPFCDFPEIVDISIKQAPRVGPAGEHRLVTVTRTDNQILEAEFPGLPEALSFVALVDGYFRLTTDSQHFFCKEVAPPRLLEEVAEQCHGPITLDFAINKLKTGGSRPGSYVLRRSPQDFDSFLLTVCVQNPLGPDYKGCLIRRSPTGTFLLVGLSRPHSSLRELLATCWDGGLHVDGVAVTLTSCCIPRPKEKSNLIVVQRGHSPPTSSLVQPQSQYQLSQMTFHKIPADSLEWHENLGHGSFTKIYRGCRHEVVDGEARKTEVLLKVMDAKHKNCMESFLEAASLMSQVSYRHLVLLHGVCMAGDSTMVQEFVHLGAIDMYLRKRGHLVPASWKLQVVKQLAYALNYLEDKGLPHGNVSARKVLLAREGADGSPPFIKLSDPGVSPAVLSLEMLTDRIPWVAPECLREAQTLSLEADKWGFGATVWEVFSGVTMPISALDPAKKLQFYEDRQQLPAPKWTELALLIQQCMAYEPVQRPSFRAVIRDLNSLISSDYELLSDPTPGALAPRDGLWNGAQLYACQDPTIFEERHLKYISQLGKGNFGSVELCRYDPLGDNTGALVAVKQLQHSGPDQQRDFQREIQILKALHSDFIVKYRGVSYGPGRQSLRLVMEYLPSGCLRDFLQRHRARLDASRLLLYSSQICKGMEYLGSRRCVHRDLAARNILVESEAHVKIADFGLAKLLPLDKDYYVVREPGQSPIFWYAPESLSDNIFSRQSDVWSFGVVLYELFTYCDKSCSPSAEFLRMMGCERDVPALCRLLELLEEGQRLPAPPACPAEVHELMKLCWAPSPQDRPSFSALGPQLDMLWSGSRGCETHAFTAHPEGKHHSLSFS
Briefly: JAK Caliper Enzyme Assay at 4 μM ATP. The class given is biochemical. As to the method:
(§1) Test article was solubilized in dimethyl sulfoxide (DMSO) to a stock concentration of 30 mM. An 11-point half log dilution series was created in DMSO with a top concentration of 600 μM. […] Test article and assay controls were added to a 384-well plate. […] Enzyme concentrations and incubation times were optimized for each new enzyme preps and were modified slightly over time to ensure 20%-30% phosphorylation. […] The assay plates were placed on a Caliper Life Science Lab Chip 3000 (LC3000) instrument, and each well was sampled using appropriate separation conditions to measure the unphosphorylated and phosphorylated peptide.

The target in assay [2] is T1, JAK3 enzyme. Briefly: JAK Caliper Enzyme Assay at 1 mM ATP. Format: biochemical. The method, then: as §1

Each structure is given as a SMILES string.

As for `C=CC(=O)N1CCC(Oc2cnc3[nH]cc(C(=O)N[C@@H]4C[C@H]4C(F)(F)F)c3n2)CC1` [Example 216, 2-[(1-acryloylpiperidin-4-yl)oxy]-N-[(1R,2R)-2-(trifluoromethyl)cyclopropyl]-5H-pyrrolo[2,3-b]pyrazine-7-carboxamide], the IC50 (usually the concentration needed to halve the response being measured) at JAK3 enzyme [1] came to 3.27 nM; against JAK3 enzyme [2], 463 nM.
As to `C=CC(=O)N1C[C@H](C2CC2)[C@H](Nc2cnc3[nH]cc(C(=O)NCCOC)c3n2)C1` [Example 247, 2-{[(3S,4S)-1-acryloyl-4-cyclopropylpyrrolidin-3-yl]amino}-N-(2-methoxyethyl)-5H-pyrrolo[2,3-b]pyrazine-7-carboxamide], the figures for the IC50 against JAK3 enzyme [1] and on JAK3 enzyme [2] were 3.34 nM and 829 nM, respectively.
The matching figures for `C=CC(=O)N1CCN(c2cnc3[nH]cc(C(=O)N[C@@H]4C[C@H]4C(F)(F)F)c3n2)CC1` [Example 287, 2-(4-acryloylpiperazin-1-yl)-N-[(1R,2R)-2-(trifluoromethyl)cyclopropyl]-5H-pyrrolo[2,3-b]pyrazine-7-carboxamide]: 2.71 nM and 499 nM.
As for `C=CC(=O)N1CCN(c2cnc3[nH]cc(C(=O)N[C@@H](CO)Cc4cccc(C#N)c4)c3n2)CC1(C)C` [Example 157, 2-(4-acryloyl-3,3-dimethylpiperazin-1-yl)-N-[(2R)-1-(3-cyanophenyl)-3-hydroxypropan-2-yl]-5H-pyrrolo[2,3-b]pyrazine-7-carboxamide], the IC50 is 20.6 nM against JAK3 enzyme [1] and 2900 nM against JAK3 enzyme [2].
In the same order, the values of `C=CC(=O)N1CCN(c2cnc3[nH]cc(C(=O)N[C@@H]4COc5ccccc5C4)c3n2)CC1(C)C` [Example 168, 2-(4-acryloyl-3,3-dimethylpiperazin-1-yl)-N-[(3S)-3,4-dihydro-2H-chromen-3-yl]-5H-pyrrolo[2,3-b]pyrazine-7-carboxamide] are 7.76 nM and 769 nM.
In the same order, the values of `C=CC(=O)N1CCN(c2cnc3[nH]cc(C(=O)N[C@@H](c4ccccc4)C(C)(C)O)c3n2)CC1(C)C` [Example 162, 2-(4-acryloyl-3,3-dimethylpiperazin-1-yl)-N-[(1S)-2-hydroxy-2-methyl-1-phenylpropyl]-5H-pyrrolo[2,3-b]pyrazine-7-carboxamide] are 6.19 nM and 581 nM.
For the molecule `C=CC(=O)N1CC(Nc2cnc3[nH]cc(C(=O)NCC(C)C)c3n2)C2(CC2)C1` (stereo not shown) [Example 236, 2-[(5-acryloyl-5-azaspiro[2.4]hept-7-yl)amino]-N-(2-methylpropyl)-5H-pyrrolo[2,3-b]pyrazine-7-carboxamide], the IC50 was determined as 45.1 nM on JAK3 enzyme [1] and 6550 nM against JAK3 enzyme [2].
The matching figures for `C=CC(=O)N1CCN(c2cnc3[nH]cc(C(=O)N[C@@H]4CCO[C@H]4C)c3n2)CC1(C)C` [Example 160, 3-({[2-(4-acryloyl-3,3-dimethylpiperazin-1-yl)-5H-pyrrolo[2,3-b]pyrazin-7-yl]carbonyl}amino)-2,5-anhydro-1,3,4-trideoxy-D-erythro-pentitol]: 4.33 nM and 463 nM.
In the case of `C=CC(=O)N1CCN(c2cnc3[nH]cc(C(=O)N[C@H](C)COc4ccccc4)c3n2)CC1(C)C` [Example 167, 2-(4-acryloyl-3,3-dimethylpiperazin-1-yl)-N-[(2R)-1-phenoxypropan-2-yl]-5H-pyrrolo[2,3-b]pyrazine-7-carboxamide], the IC50 worked out at 4.61 nM at JAK3 enzyme [1] and 599 nM against JAK3 enzyme [2].
With `C=CC(=O)N1C[C@H](Nc2cnc3[nH]cc(C(=O)NCCOC)c3n2)C[C@@H]1COC` [Example 246, 2-{[(3R,5R)-1-acryloyl-5-(methoxymethyl)pyrrolidin-3-yl]amino}-N-(2-methoxyethyl)-5H-pyrrolo[2,3-b]pyrazine-7-carboxamide], the IC50 on JAK3 enzyme [1] was 7.79 nM; on JAK3 enzyme [2] it was 1110 nM.
As for `C=CC(=O)N1C[C@@H](CC)[C@@H](Nc2cnc3[nH]cc(C(=O)NCC)c3n2)C1` [Example 263, 2-{[(3R,4R)-1-acryloyl-4-ethylpyrrolidin-3-yl]amino}-N-ethyl-5H-pyrrolo[2,3-b]pyrazine-7-carboxamide], the IC50 at JAK3 enzyme [1] amounted to 52.4 nM; against JAK3 enzyme [2] it was 6460 nM.
In the same order, the values of `C=CC(=O)N1CCC(Oc2cnc3[nH]cc(C(=O)NCCCC)c3c2)CC1` [Example 348, 5-[(1-acryloylpiperidin-4-yl)oxy]-N-butyl-1H-pyrrolo[2,3-b]pyridine-3-carboxamide] are 10.2 nM and 1190 nM.
The matching figures for `C=CC(=O)N1CCN(c2cnc3[nH]cc(C(=O)N[C@@H](C)COc4ccccc4)c3n2)CC1(C)C` [Example 147, 2-(4-acryloyl-3,3-dimethylpiperazin-1-yl)-N-[(2S)-1-phenoxypropan-2-yl] 5H-pyrrolo[2,3-b]pyrazine-7-carboxamide]: 41.7 nM and 3710 nM.
In the same order, the values of `C=CC(=O)N1CC[C@H](Nc2cnc3[nH]cc(C(=O)NCCC(F)(F)F)c3n2)C1` (single isomer, unassigned) [Example 255] are 6.37 nM and 846 nM.
For the molecule `C=CC(=O)N1CC[C@H](OC)[C@H](Nc2cnc3[nH]cc(C(=O)N[C@H](C)COC)c3n2)C1` (single isomer, unassigned) [Example 6], the IC50 against JAK3 enzyme [1] came to 10.1 nM; against JAK3 enzyme [2], 1320 nM.
Take `C=CC(=O)N1CCN(c2cnc3[nH]cc(C(=O)NC4CC(F)(F)C4)c3n2)CC1(C)C` [Example 325, 2-(4-acryloyl-3,3-dimethylpiperazin-1-yl)-N-(3,3-difluorocyclobutyl)-5H-pyrrolo[2,3-b]pyrazine-7-carboxamide]: the figures for the IC50 at JAK3 enzyme [1] and on JAK3 enzyme [2] were 12.8 nM and 1260 nM, respectively.
Turning to `C=CC(=O)N1CCN(c2cnc3[nH]cc(C(=O)NCC(F)(F)F)c3n2)CC1(C)C` [Example 286, 2-(4-acryloyl-3,3-dimethylpiperazin-1-yl)-N-(2,2,2-trifluoroethyl)-5H-pyrrolo[2,3-b]pyrazine-7-carboxamide], the IC50 on JAK3 enzyme [1] turned out to be 12.4 nM; on JAK3 enzyme [2], 1020 nM.
Take `C=CC(=O)N1CCC(Nc2cnc3[nH]cc(C(=O)NCc4nc5ccc(F)cc5o4)c3n2)CC1` [Example 194, 2-[(1-acryloylpiperidin-4-yl)amino]-N-[(6-fluoro-1,3-benzoxazol-2-yl)methyl]-5H-pyrrolo[2,3-b]pyrazine-7-carboxamide]: the half-maximal inhibitory concentration (IC50) against JAK3 enzyme [1] was 0.993 nM; against JAK3 enzyme [2] it was 22 nM.
With `C=CC(=O)N1C[C@H](Nc2cnc3[nH]cc(C(=O)NCC)c3n2)[C@@](C)(C#N)C1` [Example 240, 2-{[(3R,4S)-1-acryloyl-4-cyano-4-methylpyrrolidin-3-yl]amino}-N-ethyl-5H-pyrrolo[2,3-b]pyrazine-7-carboxamide], the IC50 on JAK3 enzyme [1] turned out to be 10.9 nM; against JAK3 enzyme [2], 4060 nM.
In the case of `C=CC(=O)N1C[C@H](Nc2cnc3[nH]cc(C(=O)NCC)c3n2)C[C@H]1COCC` [Example 250, 2-{[(3R,5S)-1-acryloyl-5-(ethoxymethyl)pyrrolidin-3-yl]amino}-N-ethyl-5H-pyrrolo[2,3-b]pyrazine-7-carboxamide], the IC50 against JAK3 enzyme [1] stood at 4.31 nM; against JAK3 enzyme [2], 798 nM.
The matching figures for `C=CC(=O)N1CC[C@@H](Nc2cnc3[nH]cc(C(=O)N[C@@H](C)COC)c3n2)[C@@H](OC)C1` (single isomer, unassigned) [Example 355]: 0.327 nM and 30 nM.
The matching figures for `C=CC(=O)N1CCN(c2cnc3[nH]cc(C(=O)N[C@@H]4COC[C@@H]4c4ccc(F)cc4)c3n2)CC1(C)C` (stereo in doubt) [Example 143, 2-(4-acryloyl-3,3-dimethylpiperazin-1-yl)-N-[4-(4-fluorophenyl)tetrahydrofuran-3-yl]-5H-pyrrolo[2,3-b]pyrazine-7-carboxamide]: 22.6 nM and 1920 nM.
In the same order, the values of `C=CC(=O)N1C[C@H](Nc2cnc3[nH]cc(C(=O)NCCOC)c3n2)[C@@](C)(C#N)C1` [Example 232, 2-{[(3R,4S)-1-acryloyl-4-cyano-4-methylpyrrolidin-3-yl]amino}-N-(2-methoxyethyl)-5H-pyrrolo[2,3-b]pyrazine-7-carboxamide] are 2.5 nM and 606 nM.
